Non-standard residues stand in square brackets, D forms with d. Residues, ends and D or L forms follow the SMILES beside them. No end group written: not given here.
How the values were obtained:
IL-1R/IL-1RacP [1] = biological target: T1, IL-1R/IL-1RacP (Homo sapiens, UniProt Q9NPH3); experiment: IL-1 induced proliferation in A549 carcinoma cells, tritiated thymidine method; type: cell-based; details: IL-1 10 ng/ml or 1 ng/ml; peptides 10^−6 to 10^−4 M
T1 construct: endogenous in cells; host or cells: A549 carcinoma cells
T1 sequence (Q9NPH3 21-570): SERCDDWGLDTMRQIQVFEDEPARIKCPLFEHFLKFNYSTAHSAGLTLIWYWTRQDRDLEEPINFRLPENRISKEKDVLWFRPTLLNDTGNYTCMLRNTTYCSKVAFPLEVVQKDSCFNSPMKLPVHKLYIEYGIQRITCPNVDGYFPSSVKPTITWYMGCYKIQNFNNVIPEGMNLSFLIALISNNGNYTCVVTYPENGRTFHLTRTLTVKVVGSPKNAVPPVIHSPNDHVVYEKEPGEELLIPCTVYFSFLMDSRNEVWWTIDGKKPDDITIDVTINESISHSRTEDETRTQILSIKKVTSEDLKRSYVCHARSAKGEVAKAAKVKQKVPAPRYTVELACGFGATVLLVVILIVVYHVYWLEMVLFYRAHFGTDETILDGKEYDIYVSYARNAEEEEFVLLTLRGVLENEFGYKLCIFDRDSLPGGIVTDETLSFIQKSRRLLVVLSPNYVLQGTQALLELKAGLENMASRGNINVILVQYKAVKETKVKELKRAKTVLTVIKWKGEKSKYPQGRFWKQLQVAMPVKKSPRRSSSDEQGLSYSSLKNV
Description: FIG. 9 graphically illustrates results of proliferation assays in carcinome A549 cells in presence of IL-1 (10 ng/ml-Panel A) (1 ng/ml-Panel B) and various concentrations of the peptides API-101, API-103 and API-106;
The proliferation effect of IL-1 was measured in A549 carcinoma cells in the presence of peptides API101; API103 and API106 and of IL-1 (10 ng/ml-Panel A) and (1 ng/ml-Panel B) pursuant to the incorporated tritiated thymidine method. The cells were preincubated at 37° C. with the different peptides at different concentrations, namely 10^−6, 10^−5 and 10^−4 M. They were then incubated with IL-1 (10 ng/ml or 1 ng/ml) for 24 hours. The cells were then contacted with ^3H-Thymidine for 24 hours, washed and lysed. The radioactivity was then measured with a scintillation counter. The sequences of the peptides antagonists used are as follows: API-101 […], API-103 […]; and API-106 […]. They generally correspond to the subfragment peptides having sequences SEQ ID NO: 50, NO: 52 and NO: 53, respectively except where the subfragment peptide contained an isoleucine. In that case, this isoleucine was replaced by a conservative leucine in the synthesized peptide for economic reasons.

IL-1R/IL-1RacP [2] = experiment: Vasomotricity of piglet pial vessels, IL-1β induced vasodilatation; details: IL-1β 75 ng/ml; U46619 10^−7M preconstriction; peptide 10^−10 to 10^−5 M; data not shown; read-out: IC50, prevention of vasodilation induced by IL-1β in piglet pial vessels
Description: In another experiment, vasomotricity variation of piglets pial vessels was studied to further evaluate the particular effect of cytokine receptor subfragments on the vasodilatator effect of IL-1β. Brains were dissected from Yorkshire piglets. Slices of brain exposing the pial vessels were pinned to a wax base of a 20 ml bath containing Krebs buffer (pH 7.4) equilibrated with 95% O2-5% CO2 and maintained at 37° C. Microvessels were visualized and recorded using a video camera mounted on a dissecting microscope. Vascular diameter was measured using a digital image analyzer and the images were recorded before and after topical application of constricting agent U46619 at 10^−7M. After stabilization of the vasomotricity, IL-1β was added until stabilization of vasodilatation. Peptides were then injected at different concentrations from 10^−10 to 10^−5M. Reversal of vasodilatation (i.e. vasoconstriction) was visualized and measured as previously mentioned. IL-1β induced vasodilatation in the microvasculature of the piglet brain was observed. […] The range of concentrations of the peptide administered was from 10^−10 to 10^−5 M.

VEGFR2 (Flk-1) = experiment: VEGF induced proliferation in microvascular endothelial cells, incorporated tritiated thymidine method; type: cell-based, porcine; details: VEGF 2 ng/ml; peptides 10 μM (FIG. 2 panel A)
Description: (§1) FIG. 2 graphically illustrates in panel A results of proliferation assay in porcine microvascular endothelial cells in presence of VEGF (2 ng/ml) and peptides 2.1, 2.2, 2.3 (10 μM). In panel B are graphically illustrated dose-response of peptides in pulmonary arterial endothelial cells (PAEC) in presence of VEGF (2 ng/ml) and increasing doses of peptides. In panel C is graphically illustrated the effect of intravitreally injected peptides (10 μM [estimated final intraocular concentration]) of the present invention on neovascularization in rat retinas exposed to hyperoxic conditions;
To determine the efficient and non cytotoxic concentration of VEGF to use in the assay, a dose-response curve of VEGF was generated in two types of cells, namely microvascular endothelial cells and pulmonary artery endothelial cells (PAEC) that had been transfected with the Flk-1 gene. The proliferation was then measured in those two types of cells in the presence of peptides 2.1, 2.2 and 2.3 and of VEGF (2 ng/ml) pursuant to the incorporated tritiated thymidine method. The cells were preincubated at 37° C. with the different peptides at different concentrations. They were incubated with VEGF (2 ng/ml) for 24 hours. The cells were contacted with ^3H-Thymidine for 24 hours, washed and lysed. The radioactivity was measured with a scintillation counter.

VEGFR (Flk-1) = biological target: T2, VEGFR (Flk-1) (Rattus norvegicus, UniProt O08775); experiment: Ischemic retinopathy model, neovascularization in rat retinas exposed to hyperoxic conditions; type: in vivo; details: rat pups, 80% O2 then normoxia; peptides 10 μM final concentration in the vitreous body
T2 construct: from tissue; host or cells: rat pup retina (in vivo, intravitreal injection)
T2 sequence (O08775 20-1343): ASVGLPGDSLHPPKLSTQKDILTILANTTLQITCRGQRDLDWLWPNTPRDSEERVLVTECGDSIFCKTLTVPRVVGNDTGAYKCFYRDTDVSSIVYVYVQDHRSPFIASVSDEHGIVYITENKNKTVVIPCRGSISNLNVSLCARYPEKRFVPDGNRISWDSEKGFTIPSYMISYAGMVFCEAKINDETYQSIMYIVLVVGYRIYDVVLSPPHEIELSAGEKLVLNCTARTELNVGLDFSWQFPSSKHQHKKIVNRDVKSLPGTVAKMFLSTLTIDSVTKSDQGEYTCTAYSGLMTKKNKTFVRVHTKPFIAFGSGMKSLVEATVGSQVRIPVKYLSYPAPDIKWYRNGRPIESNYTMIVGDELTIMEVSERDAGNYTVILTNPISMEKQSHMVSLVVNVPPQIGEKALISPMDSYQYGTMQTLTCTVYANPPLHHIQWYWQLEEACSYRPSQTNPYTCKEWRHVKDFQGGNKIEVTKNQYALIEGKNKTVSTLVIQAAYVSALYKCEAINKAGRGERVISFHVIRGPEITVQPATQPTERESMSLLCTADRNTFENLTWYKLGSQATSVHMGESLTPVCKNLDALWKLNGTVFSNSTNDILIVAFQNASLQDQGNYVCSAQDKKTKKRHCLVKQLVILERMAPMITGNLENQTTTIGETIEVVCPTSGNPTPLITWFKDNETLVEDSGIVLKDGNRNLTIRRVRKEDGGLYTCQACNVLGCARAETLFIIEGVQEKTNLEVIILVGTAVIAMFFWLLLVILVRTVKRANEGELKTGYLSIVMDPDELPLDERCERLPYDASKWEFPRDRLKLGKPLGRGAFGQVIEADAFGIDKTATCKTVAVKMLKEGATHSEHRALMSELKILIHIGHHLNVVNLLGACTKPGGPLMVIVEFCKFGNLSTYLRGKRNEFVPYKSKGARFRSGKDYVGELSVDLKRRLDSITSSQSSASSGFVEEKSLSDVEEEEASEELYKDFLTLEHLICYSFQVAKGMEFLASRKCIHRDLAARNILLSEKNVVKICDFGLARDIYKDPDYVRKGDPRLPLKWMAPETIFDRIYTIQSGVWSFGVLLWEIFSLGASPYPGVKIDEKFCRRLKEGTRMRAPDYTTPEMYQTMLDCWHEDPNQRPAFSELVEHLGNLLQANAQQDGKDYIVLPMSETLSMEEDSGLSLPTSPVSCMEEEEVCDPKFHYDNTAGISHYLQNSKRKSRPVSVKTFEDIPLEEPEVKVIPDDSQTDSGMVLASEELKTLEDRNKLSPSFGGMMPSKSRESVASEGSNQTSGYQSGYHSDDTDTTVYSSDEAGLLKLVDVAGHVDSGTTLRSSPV
Description: as §1
The efficiency of the selected peptides was verified in vivo in a ischemic retinopathy model, a phenomena highly dependant on VEGF activation. Rat pups were exposed to 80% O2 followed by a period of normoxia (21% O2). The peptides were injected at a final concentration of 10 μM in the vitreous body. The retinas were then retrieved, colored with the ADPase method and mounted on slides. Photographs of the retinas were taken with a microscope linked to a computer and the vascular density was evaluated with the Image prosoftware.

Compound	EC50 (IL-1R/IL-1RacP [1])	IC50 (IL-1R/IL-1RacP [2])	VEGF induced proliferation in microvascular endothelial cells (VEGFR2 (Flk-1))	induced neovascularization in vivo (vascular density of retina) (VEGFR (Flk-1))
APRYTVELA [API-101]	1 µM	0.182 µM		
CC(C)C[C@@H](NC(=O)[C@@H](CCCNC(=N)N)NC(=O)[C@H](NC(=O)[C@@H](CCCNC(=N)N)NC(=O)[C@@H](CCC(=O)O)NC(=O)CNC(=O)[C@H](NC(=O)[C@H](NC(=O)[C@@H](C)NC(=O)[C@H](N)CCC(=O)O)[C@H](C)O)C(C)C)C(C)C)C(=O)O [2.2] (H-[dE][dA][dT][dV]G[dE][dR][dV][dR][dL]-OH; N-terminus and C-terminus assumed)			completely abrogated	most effective inhibitor of neovascularization
MKLPVHKLY [API-103]	1 µM			
CC[C@@H](C)[C@@H](NC(=O)[C@@H](CCC(=O)O)NC(=O)[C@@H](CC(C)C)NC(=O)[C@@H](CC(N)=O)NC(=O)[C@H](NC(=O)[C@@H](CCCCN)NC(=O)[C@@H](CCC(=O)O)NC(=O)[C@@H](CCC(N)=O)NC(=O)[C@@H](C)N)[C@H](C)O)C(=O)N[C@@H](C(=O)N[C@@H](C(=O)N[C@H](CC(C)C)C(=O)N[C@@H](C(=O)NCC(=O)O)C(C)C)[C@H](C)CC)[C@H](C)CC [2.1] (H-[dA][dQ][dE][dK][dT][dN][dL][dE][dI][dI][dI][dL][dV]G-OH; N-terminus and C-terminus assumed)			completely abrogated	

Reference: patent US7432341B2, “Cytokine receptor modulators and method of modulating cytokine receptor activity” (Valo HSJ, Limited Partnership, priority 2002, dated 2008)
